Experimental data reported in patent US20080262071A1 (priority 2004, published 2008).
Where two headings read alike, the source gives them in different places.

Assays:
[1] = Blood pressure after single oral dose in healthy male volunteers; type: in vivo, human; details: healthy subjects
Protocol: Ten healthy male volunteers were tested on two separate occasions one week apart. On both occasions their blood pressure was measured at baseline.

[2] = Single blind pilot study of pindolol in PMS (COPE diary, CGI); type: in vivo, human
Description: A single blind pilot study to evaluate the safety, efficacy and tolerability of pindolol in PMS was initiated at one study centre. The trial objectives were to: […] […] Twenty subjects were recruited who met the criteria for inclusion in the study. After screening subjects underwent a one month assessment period with prospective diaries (COPE, Calendar of Premenstrual Events). By calculating the subjects COPE scores in the follicular and luteal phases, a diagnosis of late luteal phase dysphoric disorder could be made. All subjects then entered the single-blind placebo treatment period and the subjects' outcome at the end of this cycle acted as their baseline assessment. Subjects were then treated with pindolol for the next three cycles and assessed using the COPE. During this three month period, subjects may have a sequential increase in dose at monthly intervals from 15 to 25 mg/day to optimize response. Provision was made for dose decreases in case of tolerability concerns. Subjects were aware that they would receive three months of active and one month of placebo but were unaware of when the placebo was administered. […] Secondary efficacy measures included; mean change from the end of the placebo period in luteal phase total COPE score; mean change from end of the placebo period in luteal phase physical COPE symptoms; mean change from the end of the luteal phase behavioral symptoms; mean change from end of the placebo period in follicular phase total COPE score; CGI improvement score at each of the three menstrual cycles.

[3] = man, after administration of the racemate; cited from earlier work
[4] = biological target: T1, 5HT1a receptors (Homo sapiens, UniProt P08908); details: cited from earlier work
T1 construct: host or cells: human subjects, in vivo PET
T1 sequence (P08908 1-422): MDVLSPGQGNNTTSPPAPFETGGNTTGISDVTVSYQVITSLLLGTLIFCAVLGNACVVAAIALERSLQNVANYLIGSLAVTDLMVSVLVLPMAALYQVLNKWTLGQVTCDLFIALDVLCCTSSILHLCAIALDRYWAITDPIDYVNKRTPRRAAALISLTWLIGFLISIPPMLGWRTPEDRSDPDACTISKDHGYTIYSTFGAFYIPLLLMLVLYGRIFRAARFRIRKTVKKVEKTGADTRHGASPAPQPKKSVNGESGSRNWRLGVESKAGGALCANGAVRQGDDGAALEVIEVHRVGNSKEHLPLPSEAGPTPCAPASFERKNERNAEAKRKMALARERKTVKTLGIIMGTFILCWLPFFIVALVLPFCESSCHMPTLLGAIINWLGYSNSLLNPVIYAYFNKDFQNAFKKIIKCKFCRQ

[5] = meta-analysis of 14 double-blind trials; cited from earlier work
[6] = PMS subjects; cited from earlier work
[7] = luteal phase administration; cited from earlier work
[8] = Case treatment of a person with premenstrual dysphoric disorder, daily symptom diary; type: in vivo, human; details: month 2, 5 mg three times daily throughout luteal phase
Description: Patient was a person with a long history of premenstrual dysphoric disorder.
Throughout each cycle, a daily diary was used to document symptoms.

[9] = PMS subjects, three cycles of pindolol

## CC(C)NCC(O)COc1cccc2[nH]ccc12 (racemic) [pindolol]
[1]; 10 mg orally
  blood pressure: definite drop in blood pressure
[1]; 10 mg
  diastolic blood pressure: definite drops in diastolic blood pressure
[2]; 15 to 25 mg/day
  tolerability: very well tolerated
  withdrawals for unacceptable reductions in blood pressure: no withdrawals
[2]; [9]
  CGI improvement: improvement in CGI
  behavioral COPE scores: Particularly significant decreases
[2]; all patients treated with active drug, vs end of placebo period
  total COPE score: decrease in the reduction of total COPE score
[2]; patients on doses of 15 mg and above
  total COPE score: Significant decreases
[3]
  differences between (−) and (+) pindolol in AUC, Cmax and t1/2 hrs: minor differences
[4]; 2.5 mg
  occupancy of 5HT1a receptors: did not generate any significant occupancy
[4]; 5.0 mg
  occupancy of 5HT1a receptors: 19%

## CC(=O)[C@H]1CC[C@H]2[C@@H]3CCC4=CC(=O)CC[C@]4(C)[C@H]3CC[C@]12C [Progesterone]
[5]
  difference from placebo treatment in PMS: did not find a clinically significant difference

## CC(C)NCC(O)COc1ccc(CC(N)=O)cc1 (stereo not shown) [atenolol]
[6]
  several other scales: significant improvement was not found

## CNCCC(Oc1ccc(C(F)(F)F)cc1)c1ccccc1 (stereo not shown) [fluoxetine]
[7]
  efficacy in PMDD: some efficacy

## CN[C@H]1CC[C@@H](c2ccc(Cl)c(Cl)c2)c2ccccc21 [sertraline]
[7]
  efficacy in PMDD: some efficacy

## S-(−)-pindolol [(−) pindolol]
[8]
  mood and anxiety (daily diary): helped improve mood and reduce anxiety
